The supplement of paper PMC13380429

Key:
[1] = tested on: A549-ACE2 infected with SARS-CoV-2; test: cell count relative to DMSO; higher = less toxic; conditions: 24 h
[2] = tested on: A549-ACE2 infected with SARS-CoV-2; test: SARS-CoV-2 infection rate relative to DMSO; higher = more infection; conditions: 24 h
[3] = tested on: Vero E6; test: cell viability relative to DMSO; higher = less toxic; conditions: 72 h
[4] = tested on: HepG2; test: as above; conditions: 72 h
[5] = tested on: Caco-2; test: as above; conditions: 72 h
[6] = tested on: U2OS; test: as above; conditions: 72 h
[7] = tested on: Calu-3; test: as above; conditions: 72 h
[8] = tested on: Vero E6; test: drug sensitivity score (DSS) for viability; higher = more toxic; extreme values may be limits of the assay; conditions: 72 h
[9] = tested on: HepG2; test: as above; conditions: 72 h
[10] = tested on: Caco-2; test: as above; conditions: 72 h
[11] = tested on: U2OS; test: as above; conditions: 72 h
[12] = tested on: Calu-3; test: as above; conditions: 72 h
[13] = tested on: A549-ACE2 infected with SARS-CoV-2; test: morphology score (similarity to uninfected cells); higher = more like uninfected cells; conditions: 24 h
[14] = tested on: Vero E6; test: relative viability EC50 (midpoint between 100% and the lowest measured viability); higher = less toxic; conditions: 72 h
[15] = tested on: Caco-2; test: as above; conditions: 72 h
[16] = tested on: Calu-3; test: as above; conditions: 72 h
[17] = tested on: A549-ACE2; test: drug-induced phospholipidosis relative to tamoxifen; higher = more phospholipidosis
[18] = tested on: U2OS; test: relative viability EC50 (midpoint between 100% and the lowest measured viability); higher = less toxic; conditions: 72 h
[19] = tested on: HepG2; test: as above; conditions: 72 h

COc1cc2ncnc(Nc3cccc(Br)c3)c2cc1OC
Conditions	SARS-CoV-2 infection rate, [2] [%]	cell count, [1] [%]	cell viability, [3] [%]	cell viability, [4] [%]	cell viability, [5] [%]	cell viability, [6] [%]	cell viability, [7] [%]	morphology score, [13]
1 nM	–	–	101	103	88.5	93.7	102	–
10 nM	–	–	84.6	86.4	109	98.4	84.4	–
100 nM	–	–	102	92.6	95.1	97.6	96.5	–
0.3 µM	107	87	–	–	–	–	–	-0.21
1000 nM	–	–	79.7	92.1	69.6	93.2	40.4	–
3 µM	86	105	–	–	–	–	–	0.38
10 µM	33	92	–	–	–	–	–	0.64
10000 nM	–	–	49.6	71.6	47.2	72.9	23.6	–
30 µM	64	29	–	–	–	–	–	-0.06

Conditions	drug sensitivity score	relative viability EC50 [µM]
[8]	5.4	–
[9]	2.1	–
[10]	6.4	–
[11]	2.1	–
[12]	11.7	–
[14]	–	1.17
[15]	–	0.774
[16]	–	0.497

drug-induced phospholipidosis [%], [17]
Conditions	0.3 µM	0.833333 µM	3.33333 µM	6.66667 µM	10 µM	30 µM
24 h	1.6	-1.36	0.82	3.17	1.18	9.67
48 h	-2.83	-1.17	-1.23	-4.71	-0.44	–
72 h	2.41	-2.62	-2.62	-1.43	0.652	–

C=C1CC[C@@H]2[C@](C)(CO)[C@H](O)CC[C@@]2(C)[C@@H]1C/C=C1/C(=O)OC[C@H]1O [andrographolide]
Conditions	SARS-CoV-2 infection rate, [2] [%]	cell count, [1] [%]	cell viability, [3] [%]	cell viability, [4] [%]	cell viability, [5] [%]	cell viability, [6] [%]	cell viability, [7] [%]	morphology score, [13]
1 nM	–	–	100	102	99.1	103	90.5	–
10 nM	–	–	104	99.2	104	95.7	94.3	–
0.1 µM	103	101	–	–	–	–	–	-0.02
100 nM	–	–	98	109	101	102	105	–
0.3 µM	110	101	–	–	–	–	–	-0.22
1 µM	111	96	–	–	–	–	–	-0.15
1000 nM	–	–	112	102	94.3	96.2	106	–
3 µM	102	102	–	–	–	–	–	-0.17
10000 nM	–	–	73.8	66.5	66	22.9	112	–

Conditions	drug sensitivity score	relative viability EC50 [µM]
[8]	0.7	–
[9]	1.4	–
[10]	2.5	–
[11]	4.8	–
[12]	0	–
[16]	–	> 10
[18]	–	2.78

drug-induced phospholipidosis [%], [17]
Conditions	0.3 µM	0.833333 µM	3.33333 µM	6.66667 µM	10 µM	30 µM
24 h	4.15	-1.47	2.19	13.3	16	25
48 h	3.38	2.04	3.48	15.8	19.9	–
72 h	0.729	-0.638	-0.912	5.37	8.38	–

O=C(O)c1cc(C(=O)O)c(C(=O)N(Cc2cccc(Oc3ccccc3)c2)[C@H]2CCCc3ccccc32)cc1C(=O)O
cell viability [%]
Conditions	[3]	[4]	[5]	[6]	[7]
1 nM	98.2	98.5	106	102	102
10 nM	102	106	99.1	94.4	98.8
100 nM	96.9	102	90.4	99.4	103
1000 nM	98.9	107	99.8	91.3	104
10000 nM	102	98.4	103	109	106

Conditions	drug sensitivity score	relative viability EC50 [µM]
[8]	0	–
[9]	0	–
[10]	0	–
[11]	0	–
[12]	0	–
[14]	–	> 10
[15]	–	> 10
[16]	–	> 10
[18]	–	> 10
[19]	–	> 10

CC(C)NCC(O)COc1ccc(COCCOC(C)C)cc1 (stereo unspecified) [bisoprolol]
cell viability [%]
Conditions	[3]	[4]	[5]	[6]	[7]
1 nM	92	104	91.3	93.6	95.5
10 nM	98.3	98.9	95.8	94	103
100 nM	93.3	91.2	103	101	108
1000 nM	104	103	100	95	97.8
10000 nM	107	90.6	99.2	103	108

Conditions	drug sensitivity score	relative viability EC50 [µM]
[8]	0	–
[9]	0	–
[10]	0	–
[11]	0	–
[12]	0	–
[14]	–	> 10
[15]	–	> 10
[16]	–	> 10
[18]	–	> 10
[19]	–	> 10

NC(=O)c1cccc(N)c1 [3-amino-benzamide]
cell viability [%]
Conditions	[3]	[4]	[5]	[6]	[7]
1 nM	95.7	104	98.4	99.8	106
10 nM	102	81.8	96.2	106	111
100 nM	102	107	93.3	98.3	102
1000 nM	102	101	89	104	103
10000 nM	103	99.8	96.8	98.9	97.2

Conditions	drug sensitivity score	relative viability EC50 [µM]
[8]	0	–
[9]	0	–
[10]	0	–
[11]	0	–
[12]	0	–
[14]	–	> 10
[15]	–	> 10
[16]	–	> 10
[18]	–	> 10
[19]	–	> 10
